Patent US20100035857A1, “ANTI-HYPERCHOLESTEROLEMIC COMPOUNDS” (priority 2006, published 2010)

Tested on: cholesterol absorption
Test: Cholesterol Absorption Assay in Rats
Assay type: in vivo
Conditions: CD male rats, oral, at the highest dose tested; [3H]-cholesterol counts in liver and plasma
Experimental: Compounds can be tested for cholesterol absorption activity in assays using, e.g., rats or mice, and are preferably tested in the rat assay described herein. Representative compounds of this invention were determined to inhibit cholesterol absorption employing the Cholesterol Absorption Assay in Rats, below. This assay involves comparing a test compound to ezetimibe with respect to their ability to inhibit cholesterol absorption in rats.
Cholesterol Absorption Assay in Rats: CD male rats (n=5/group), aged 5 weeks, were dosed orally with 0.5 ml 0.25% methyl cellulose solution with or without test compound or ezetimibe (0.0003 to 1 mg/kg). 0.5 to 16 hrs later all of the rats were dosed orally with 0.5 ml […]® containing 5 μCi [^3H]-cholesterol per rat. Five hours later, the animals were euthanized, and liver and blood were collected. Cholesterol counts in liver and plasma were determined, and percent inhibition of cholesterol absorption was calculated.

Compound: O=C1[C@H](CC[C@H](O)c2ccc(F)cc2)[C@@H](c2ccc(O)cc2)N1c1ccc(F)cc1 [ezetimibe, Ezetimibe]
- inhibition of cholesterol absorption: > 75%
